Where two headings read alike, the source gives them in different places.
What was measured:
[1] = Treprostinil alkyl ester conversion to treprostinil in rat lung tissue homogenate; assay type: in vitro ADME; conditions: 37° C., 200 nM, 10 mg/mL of protein
Method: (§1) Here, data were calculated based on fit of exponential increase to the maximum (experiments performed in duplicate). The results of this study are provided below in Table 2A and FIG. 37. […] In this experiment, treprostinil alkyl esters were incubated for 4 hours at a final concentration of 200 nM in 1 mL of tissue homogenate prepared in water and normalized to 10 mg/mL of protein.
(§2) C12-TR was incubated for 4 hours at a final concentration of 200 nM in 1 mL of tissue homogenate prepared in water and normalized to 10 mg/mL of protein. Both FIG. 37 experiments (eft and right graphs) were performed in duplicate and the lines represent nonlinear exponential regression assuming 1 phase decay. Table 2A. Rate of treprostinil alkyl ester conversion in the presence of rat, dog or monkey lung tissue homogenate.

[2] = Treprostinil alkyl ester conversion to treprostinil in monkey lung tissue homogenate; assay type: in vitro ADME; conditions: 37° C.
Method: as §1, §2

EP2 prostanoid receptor = target: T1, EP2 prostanoid receptor (Homo sapiens, UniProt P43116); test: GloSensor cAMP assay in CHO-K1 cells co-transfected with the EP2 receptor; assay type: cell-based
T1 construct: host or cells: CHO-K1
Source text: cAMP is a second messenger involved in signal transduction of G-protein coupled receptors (GPCRs) acting through Gα-s and Gα-i proteins. Because the treprostinil receptor is a GPCR, the assay provides an indication of whether the respective prostacyclin compound (or metabolite thereof) binds its receptor and activates the GPCR cell signaling cascade. The GloSensorTM assay harnesses a genetically modified form of firefly luciferase into which a cAMP-binding protein moiety has been inserted. Upon binding of cAMP, a conformational change is induced leading to increased light output. The EP2 prostanoid receptor was cotransfected with the GioSensorm plasmid (Promega) into CHO-K cells as follows. CHO-K cells were harvested when the monoloayer was at 50-90% confluence. First, cells were washed with 5 mL PBS. […] The media was aspirated, and the cell pellet was resuspended in 10 mL of growth media. Cell number was determined using a hemacytometer. […] For small scale transfections of up to 20 wells, the pGLoSensor-22F cAMP plasmid (Promega, Cat #: E2301) (2 apg): […] Cat #: […] P2271) ratio was diluted to a final concentration of 12.6 ng/μL (total plasmid) in Opti-MEM I reduced-serum medium (Life Technologies, Cat #: 1985062). Next, 6 μL of FuGENE HD transfection reagent (Promega, Cat #: E2311) was added to 160 μL of diluted plasmid and mixed carefully by gentle pipetting. The complex was incubated at room temperature for 0 to 10 minutes, and then 8 μL of the complex was added per well of a 96 well white assay plate (Costar, Cat #: 3917) and gently mixed without disturbing the cell monolayer. […] Following incubation, cells were treated and analyzed. For larger scale transfections, the aforementioned steps were scaled up accordingly, and cells were frozen following the last incubation. In order to prepare frozen transfected CHO-K cells, the media was aspirated from culture flasks and cells were rinsed with 5 mL PBS. […] Cell number was determined using a hemacytometer. The media was aspirated, and the cell pellet was resuspended in freezing media (Millipore, cat #: S-002-SF) at 2.5×10^4 cells/vial. Transfected cells were incubated overnight at -80° C. before transfer to liquid nitrogen for long term storage. […] SH30071.03)). […] In preparation for cAMP measurement, the cells were equilibrated with the GloSensor cAMP reagent prior to treatment. For equilibration, the medium was carefully removed from the individual well. Next, 100 μL of equilibration medium ([…] of Glosensor Reagent stock solution (Promega, Cat #: E291), 10% FBS (Hydone, Cat #: SH30071.03) and 88% CO2 independent medium (Life Technologies, Cat #: 18045088)) was added per well of the 96-well plate, and added to the side of each well. The plate was then incubated for 2 hours at room temperature. A first pre-read measurement was taken using a microplate reader (MicroLumat Plus). Plates were incubated for an additional 10 minutes at room temperature, followed by a second pre-read measurement. […] Following treatment, each plate was read every 5 minutes for the duration of the assay using a microplate reader (MicroLumat Plus). In order to determine the fold change in cAMP relative to the control, the transfection efficiency was first determined by dividing the second pre-read measurement by the average of the corresponding pre-read measurements. Next, the normalized relative light units (RLUs) of the samples were determined by dividing the plate read measurement by the transfection efficiency. The fold change in cAMP relative to the control was then determined by dividing the normalized RLU of the samples by the normalized RLU of the control. The cAMP assay was validated using free treprostinil. […] Luminescence was then measured at room temperature. […] Nebulizer Aeroneb Pro (Aerogen) was used to nebulize treprostinil derivative compositions. Desired volume of the formulation (usually 3 mL) was loaded to the mesh head of the nebulizer. […]

[3] = 4.5 hr incubation time, read-out: EC50 (μM) 4.5 hr
[4] = 6.0 hr incubation time, read-out: EC50 (μM) 6.0 hr
[5] = 8.0 hr incubation time, read-out: EC50 (μM) 8.0 hr
[6] = EC50 (μM) 0.5 hr, 0.5 hr incubation time
[7] = EC50 (μM) 1.0 hr, 1.0 hr incubation time
[8] = EC50 (μM) 2.0 hr, 2.0 hr incubation time
[9] = EC50 (μM) 3.0 hr, 3.0 hr incubation time
[10] = EC50 (μM) 4.0 hr, 4.0 hr incubation time
[11] = EC50 (μM) 5.0 hr, 5.0 hr incubation time
[12] = EC50 (μM) 7.0 hr, 7.0 hr incubation time

T1 sequence (P43116 whole entry): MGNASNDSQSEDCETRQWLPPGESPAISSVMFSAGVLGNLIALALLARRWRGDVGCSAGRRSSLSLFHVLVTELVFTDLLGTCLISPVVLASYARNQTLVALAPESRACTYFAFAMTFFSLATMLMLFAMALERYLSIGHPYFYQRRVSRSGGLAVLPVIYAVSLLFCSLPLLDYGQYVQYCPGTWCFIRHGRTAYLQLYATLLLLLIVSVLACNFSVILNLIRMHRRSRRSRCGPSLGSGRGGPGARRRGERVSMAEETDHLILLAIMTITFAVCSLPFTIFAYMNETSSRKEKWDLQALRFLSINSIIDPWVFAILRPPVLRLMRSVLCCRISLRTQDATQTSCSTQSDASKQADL

Rate of treprostinil alkyl ester conversion [1] | Rate of treprostinil alkyl ester conversion [2] | EC50 (EP2 prostanoid receptor; [3]) [µM] | EC50 (EP2 prostanoid receptor; [4]) [µM] | EC50 (EP2 prostanoid receptor; [5]) [µM] | EC50 (EP2 prostanoid receptor; [6]) [µM] | EC50 (EP2 prostanoid receptor; [7]) [µM] | EC50 (EP2 prostanoid receptor; [8]) [µM] | EC50 (EP2 prostanoid receptor; [9]) [µM] | EC50 (EP2 prostanoid receptor; [10]) [µM] | EC50 (EP2 prostanoid receptor; [11]) [µM] | EC50 (EP2 prostanoid receptor; [12]) [µM] | SMILES
32.5 nmOL/h * g of protein | 17.3 nmOL/h * g of protein | 1.41 | 1.4 | 1.09 | 3.69 | 3.39 | 1.69 | 1.42 | 1.53 | 1.4 | 1.34 | CCCCCCCCOC(=O)COc1cccc2c1C[C@H]1C[C@@H](O)[C@H](CC[C@@H](O)CCCCC)[C@H]1C2 [Compound C8-TR, treprostinil octyl ester]
1.1 nmOL/h * g of protein | 0.6 nmOL/h * g of protein | 3.17 | 3.25 | 2.9 | 4.98 | 5.35 | 4.54 | 4.07 | 3.13 | 2.94 | 3.17 | CCCCCCCCCCCCOC(=O)COc1cccc2c1C[C@H]1C[C@@H](O)[C@H](CC[C@@H](O)CCCCC)[C@H]1C2 [Compound C12-TR, dodecyl-treprostinil]
